Test results: patent EP0185961A2, “1-Phenyl-imidazole-5-carboxylic acid derivatives, process for their preparation and their use as growth regulators” (HOECHST AKTIENGESELLSCHAFT, priority 1984, dated 1986)

Experiments:
Roggen = assay: Growth inhibition in cereals, greenhouse tray test, sprayed at 3-leaf stage; assay type: in vivo; conditions: % of growth increment of untreated controls, read-out: Wuchsshemmung in % bei Roggen; for pest or weed control at 1250 g/ha: 1,25 kg/ha; for pest or weed control at 2500 g/ha: 2,5 kg/ha
Excerpt: (§1) In Schalenversuchen im Gewächshaus werden junge Getreidepflanzen (Weizen, Gerste, Roggen) im 3-Blattstadium mit erfindungsgemäßen Verbindungen in verschiedenen Wirkstoffkonzentrationen (kg/ha) tropfnaß gespritzt. […]

Weizen = assay: as above; assay type: in vivo; conditions: % of growth increment of untreated controls (100% = growth standstill), read-out: Wuchsshemmung in % bei Weizen; for pest or weed control at 1250 g/ha: 1,25 kg/ha; for pest or weed control at 2500 g/ha: 2,5 kg/ha
Excerpt: as §1

Gerste = assay: as above; assay type: in vivo; conditions: % of growth increment of untreated controls, read-out: Wuchsshemmung in % bei Gerste; for pest or weed control at 1250 g/ha: 1,25 kg/ha; for pest or weed control at 2500 g/ha: 2,5 kg/ha
Excerpt: (§2) In Schalenversuchen im Gewächshaus werden junge Getreidepflanzen (Weizen, Gerste, Roggen) im 3-Blattstadium mit erfindungsgemäßen Verbindungen in verschiedenen Wirkstoffkonzentrationen (kg/ha) tropfnaß gespritzt.
(§3) Es wird außerdem die phytotoxische Wirkung der Verbindung beobachtet.

[1] = system: Getreidepflanzen (Weizen, Gerste, Roggen); assay: Phytotoxic effect observed in the cereal growth inhibition test; assay type: in vivo; conditions: cereals; one cell for 2,5 and 1,25 kg/ha
Excerpt: as §2, §3

Reispflanzen [2] = conditions: in vivo
Excerpt: (§4) Reispflanzen werden in Kleinparzellen (2 m x 2 m) angezogen und im Stadium der maximalen Bestockung mit erfindungsgemäßen Verbindungen behandelt. Die Substanzen werden sowohl durch Spritzung appliziert als auch in das Wasser gegeben.
(§5) 3 Wochen nach der Behandlung wird bei allen Pflanzen der Zuwachs gemessen und die Wuchshemmung in % des Zuwachses der Kontrollpflanzen berechnet. Es wird außerdem auf eine mögliche phytotoxische Wirkung der Verbindungen geachtet.
(§6) Die Wuchshemmung wird als prozentualer Wert ermittelt, wobei 100% den Stillstand des Wachstums und 0% ein Wachstum entsprechend dem der unbehandelten Kontrollpflanzen bedeuten.

Sojabohnen [3] = conditions: in vivo
Excerpt: (§7) Etwa 10 cm große Sojabohnen werden mit den Wirkstoffzubereitungen tropfnaß bespritzt. Nach 3 Wochen wird bonitiert.
as §6

Sojabohnen [4] = assay: Growth inhibition in soybeans; conditions: Glycine max, 504 h, read-out: Wuchsshemmung (%)
Excerpt: as §7, §6

Reispflanzen [5] = assay: Growth inhibition in paddy rice, small plots; conditions: Oryza sativa, 504 h, read-out: Wuchsshemmung (%)
Excerpt: as §4, §5, §6

SMILES | pest or weed control at 1250 g/ha (Roggen) [%] | pest or weed control at 2500 g/ha (Roggen) [%] | pest or weed control at 1250 g/ha (Weizen) [%] | pest or weed control at 2500 g/ha (Weizen) [%] | pest or weed control at 1250 g/ha (Gerste) [%] | pest or weed control at 2500 g/ha (Gerste) [%] | Phytotox. Wirkung [1] | Phytotox. Wirkung (Reispflanzen [2]) | Phytotox. Wirkung (Sojabohnen [3]) | pest or weed control at 2500 g/ha (Sojabohnen [4]) [%] | pest or weed control at 620 g/ha (Reispflanzen [5]) [%] | pest or weed control at 1250 g/ha (Reispflanzen [5]) [%]
CCc1cccc(CC)c1-n1cncc1C(=O)NN [Beispiel 65] | 18 | 24 | 14 | 21 | 19 | 29 | keine Schäden | keine Schäden | keine Schäden | 17 | 14 | 21
CCc1cccc(CC)c1-n1cncc1C(=O)NN(C)C [Beispiel 66] | 18 | 25 | 14 | 22 | 19 | 31 | keine Schäden | keine Schäden | keine Schäden | 18 | 12 | 21
CCc1cccc(CC)c1-n1cncc1C(=O)NO [Beispiel 68] | 21 | 27 | 20 | 24 | 21 | 34 | keine Schäden | keine Schäden | keine Schäden | 26 | 18 | 25
CCc1cccc(CC)c1-n1cncc1C(=O)NNC(N)=O [Beispiel 70] | 21 | 25 | 12 | 22 | 18 | 27 | keine Schäden | keine Schäden | keine Schäden | 19 | 14 | 21
CCc1cccc(CC)c1-n1cncc1C(=O)n1cncn1 [Beispiel 76] | 15 | 23 | 13 | 21 | 17 | 27 | keine Schäden | keine Schäden | keine Schäden | 21 | 14 | 19
CCc1cccc(CC)c1-n1cncc1COCc1ccccc1C [Beispiel 95] | 15 | 22 | 14 | 19 | 17 | 25 | keine Schäden | keine Schäden | keine Schäden | 20 | 14 | 18
CCc1cccc(CC)c1-n1cncc1C(=O)NS(=O)(=O)c1ccccc1Cl [Beispiel 103] | 16 | 27 | 16 | 23 | 19 | 29 | keine Schäden | keine Schäden | keine Schäden | 22 | 15 | 21
CCc1cccc(CC)c1-n1cncc1C(=O)OC(=O)c1cncn1-c1c(CC)cccc1CC [Beispiel 115] | 24 | 31 | 14 | 24 | 19 | 38 | keine Schäden | keine Schäden | keine Schäden | 15 | 19 | 28
